The record followed here is patent publication US12441733B2, “Substituted 2,4-dioxotetrahydropyrimidines as intermediates in the synthesis of bruton's tyrosine kinase inhibitors” (Novartis AG, priority 2018, dated 2025).

The target in this assay is T1, BTK-GFP (Homo sapiens, UniProt Q06187+Q96SW2).
T1 construct: expressed in transfected cells; host or cells: HEK293A (Invitrogen R70507), lentiviral transduction with pLenti6-BTK-GFP-Ires-RFP, blasticidin selection
The assay is described as follows: BTK-GFP protein abundance flow cytometry assay in HEK293A cells. It is filed as cell-based. The conditions noted are these: HEK293A BTK-GFP-iresRFP cells, 24 h; for DC50: GFP signal by flow cytometry, concentration at which 50% maximal degradation was observed; for BTK deg Amax: % protein remaining at the concentration at which maximum degradation is seen. An outline of the steps:
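HEK293A cells stably expressing bicistronic BTK-GFP-IRES-RFP (C-terminal GFP tag) via lentiviral vector. Degradation read by flow cytometry as loss of GFP signal after degrader treatment. DC50 is concentration giving 50% maximal degradation; Amax is % protein remaining at maximal degradation.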

T1 sequence (Q06187 whole entry): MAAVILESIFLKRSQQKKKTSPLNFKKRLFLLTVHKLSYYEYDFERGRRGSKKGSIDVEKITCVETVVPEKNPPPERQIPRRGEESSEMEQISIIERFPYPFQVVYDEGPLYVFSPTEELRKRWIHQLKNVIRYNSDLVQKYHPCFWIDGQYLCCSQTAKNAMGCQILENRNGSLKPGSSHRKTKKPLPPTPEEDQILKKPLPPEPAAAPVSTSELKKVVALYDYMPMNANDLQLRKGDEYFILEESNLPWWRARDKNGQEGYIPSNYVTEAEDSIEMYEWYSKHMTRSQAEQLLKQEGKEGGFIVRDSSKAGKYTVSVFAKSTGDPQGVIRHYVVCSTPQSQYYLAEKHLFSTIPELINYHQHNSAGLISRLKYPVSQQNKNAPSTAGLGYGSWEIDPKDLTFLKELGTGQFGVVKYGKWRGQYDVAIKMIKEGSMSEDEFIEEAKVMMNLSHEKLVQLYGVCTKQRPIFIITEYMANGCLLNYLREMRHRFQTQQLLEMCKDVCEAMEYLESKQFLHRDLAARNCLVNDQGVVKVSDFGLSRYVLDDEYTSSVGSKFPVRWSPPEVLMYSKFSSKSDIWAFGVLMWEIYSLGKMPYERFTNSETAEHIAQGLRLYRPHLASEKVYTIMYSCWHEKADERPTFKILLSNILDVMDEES
T1 sequence (Q96SW2 whole entry): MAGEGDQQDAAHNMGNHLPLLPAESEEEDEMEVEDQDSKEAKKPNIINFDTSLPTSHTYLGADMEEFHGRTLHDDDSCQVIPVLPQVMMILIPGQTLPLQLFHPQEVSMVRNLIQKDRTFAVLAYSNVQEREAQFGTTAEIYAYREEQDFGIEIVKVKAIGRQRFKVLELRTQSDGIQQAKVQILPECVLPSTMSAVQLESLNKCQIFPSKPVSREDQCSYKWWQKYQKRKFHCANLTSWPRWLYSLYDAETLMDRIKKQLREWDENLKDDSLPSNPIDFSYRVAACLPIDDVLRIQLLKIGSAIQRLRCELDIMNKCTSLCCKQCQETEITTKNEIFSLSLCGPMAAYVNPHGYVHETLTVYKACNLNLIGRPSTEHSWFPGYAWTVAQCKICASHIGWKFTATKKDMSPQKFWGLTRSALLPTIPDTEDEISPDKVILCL
T1 sequence (Q16531 whole entry partner): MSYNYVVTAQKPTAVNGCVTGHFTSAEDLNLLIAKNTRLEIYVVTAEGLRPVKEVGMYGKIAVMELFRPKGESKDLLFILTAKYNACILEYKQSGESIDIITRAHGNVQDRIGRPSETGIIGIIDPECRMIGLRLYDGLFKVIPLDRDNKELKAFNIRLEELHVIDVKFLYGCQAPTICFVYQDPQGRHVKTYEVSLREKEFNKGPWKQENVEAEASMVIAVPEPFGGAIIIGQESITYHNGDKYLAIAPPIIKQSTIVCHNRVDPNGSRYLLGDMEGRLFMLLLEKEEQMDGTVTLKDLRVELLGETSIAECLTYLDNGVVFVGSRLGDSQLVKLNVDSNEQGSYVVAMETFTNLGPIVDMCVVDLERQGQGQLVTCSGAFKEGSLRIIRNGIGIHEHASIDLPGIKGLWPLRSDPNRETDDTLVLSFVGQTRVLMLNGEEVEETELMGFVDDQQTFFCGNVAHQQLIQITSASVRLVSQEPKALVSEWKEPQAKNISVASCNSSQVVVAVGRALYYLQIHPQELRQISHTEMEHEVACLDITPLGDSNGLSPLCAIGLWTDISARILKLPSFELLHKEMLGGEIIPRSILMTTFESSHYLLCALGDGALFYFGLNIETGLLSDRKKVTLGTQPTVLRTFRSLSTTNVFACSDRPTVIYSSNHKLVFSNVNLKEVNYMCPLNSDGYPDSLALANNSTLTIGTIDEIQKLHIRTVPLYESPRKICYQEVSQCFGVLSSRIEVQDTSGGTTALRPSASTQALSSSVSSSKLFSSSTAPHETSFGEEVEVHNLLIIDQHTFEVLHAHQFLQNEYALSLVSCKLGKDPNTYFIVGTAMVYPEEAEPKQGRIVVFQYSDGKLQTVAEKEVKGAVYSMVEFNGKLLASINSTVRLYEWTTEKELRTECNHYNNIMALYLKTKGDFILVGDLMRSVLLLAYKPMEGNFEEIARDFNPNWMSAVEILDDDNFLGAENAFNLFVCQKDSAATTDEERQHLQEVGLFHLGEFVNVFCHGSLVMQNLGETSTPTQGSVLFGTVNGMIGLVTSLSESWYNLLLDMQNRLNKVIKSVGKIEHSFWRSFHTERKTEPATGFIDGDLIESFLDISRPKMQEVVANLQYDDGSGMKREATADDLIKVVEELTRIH

On to `Cc1c(NC(=O)c2ccc(C(C)(C)O)cc2F)cc(F)cc1-c1ncnc2[nH]c(-c3ccc(CCN4CCC5(CC4)CCN(C(=O)c4ccc(F)c(N6CCC(=O)NC6=O)c4)CC5)cc3)cc12` [Compound 47, N-(3-(6-(4-(2-(9-(3-(2,4-dioxotetrahydropyrimidin-1(2H)-yl)-4-fluorobenzoyl)-3,9-diazaspiro[5.5]undecan-3-yl)ethyl)phenyl)-7H-pyrrolo[2,3-d]pyrimidin-4-yl)-5-fluoro-2-methylphenyl)-2-fluoro-4-(2-hydroxypropan-2-yl)benzamide], for which the DC50 turned out to be 2.2 nM and the “BTK deg Amax” value is given as 6.7%.

On to `COc1ccc(C(=O)N2CCC(OC3CCN(Cc4ccc(-c5cc6c(-c7cc(F)cc(NC(=O)c8ccc(C(C)(C)O)cc8F)c7C)ncnc6[nH]5)cc4)CC3)CC2)cc1N1CCC(=O)NC1=O` [Compound 8, N-(3-(6-(4-((4-((1-(3-(2,4-dioxotetrahydropyrimidin-1(2H)-yl)-4-methoxybenzoyl)piperidin-4-yl)oxyl)piperidin-1-yl)methyl)phenyl)-7H-pyrrolo[2,3-d]pyrimidin-4-yl)-5-fluoro-2-methylphenyl)-2-fluoro-4-(2-hydroxypropan-2-yl)benzamide], for which the DC50 was 2.6 nM and the “BTK deg Amax” value was found to be 5.5%.

Regarding `COc1ccc(C(=O)N2CCN(C(=O)N3CCN(Cc4ccc(-c5cc6c(-c7cc(F)cc(NC(=O)c8ccc(C(C)(C)O)cc8F)c7C)ncnc6[nH]5)cc4)CC3)CC2)cc1N1CCC(=O)NC1=O` [Compound 22, N-(3-(6-(4-((4-(4-(3-(2,4-Dioxotetrahydropyrimidin-1(2H)-yl)-4-methoxybenzoyl)piperazine-1-carbonyl)piperazin-1-yl)methyl)phenyl)-7H-pyrrolo[2,3-d]pyrimidin-4-yl)-5-fluoro-2-methylphenyl)-2-fluoro-4-(2-hydroxypropan-2-yl)benzamide], the DC50 turned out to be 23.7 nM and the “BTK deg Amax” value was determined as 6.5%.

Turning to `Cc1c(NC(=O)c2ccc(C(C)(C)O)cc2F)cc(F)cc1-c1ncnc2[nH]c(-c3ccc(CCN4CCC5(CC4)CCN(C(=O)c4cccc(N6CCC(=O)NC6=O)c4)CC5)cc3)cc12` [Compound 12, N-(3-(6-(4-(2-(9-(3-(2,4-Dioxotetrahydropyrimidin-1(2H)-yl)benzoyl)-3,9-diazaspiro[5,5]undecan-3-yl)ethyl)phenyl)-7H-pyrrolo[2,3-d]pyrimidin-4-yl)-5-fluoro-2-methylphenyl)-2-fluoro-4-(2-hydroxypropan-2-yl)benzamide], it took 29.9 nM to reach half-maximal degradation (DC50) and the “BTK deg Amax” value is listed as 40.6%.

On to `Cc1ccc(C(=O)N2CCC3(CCN(Cc4ccc(-c5cc6c(-c7cc(F)cc(NC(=O)c8ccc(C(C)(C)O)cc8F)c7C)ncnc6[nH]5)cc4)CC3)CC2)cc1N1CCC(=O)NC1=O` [Compound 27, N-(3-(6-(4-((9-(3-(2,4-Dioxotetrahydropyrimidin-1(2H)-yl)-4-methylbenzoyl)-3,9-diazaspiro[5.5]undecan-3-yl)methyl)phenyl)-7H-pyrrolo[2,3-d]pyrimidin-4-yl)-5-fluoro-2-methylphenyl)-2-fluoro-4-(2-hydroxypropan-2-yl)benzamide], for which it took 1.5 nM to reach half-maximal degradation (DC50) and the “BTK deg Amax” value worked out at 4.1%.

As to `COc1ccc(C(=O)NCCN2CCOC3(CCN(Cc4ccc(-c5cc6c(-c7cc(F)cc(NC(=O)c8ccc(C(C)(C)O)cc8F)c7C)ncnc6[nH]5)cc4)CC3)C2)cc1N1CCC(=O)NC1=O` [Compound 39, N-(3-(6-(4-((4-(2-(3-(2,4-dioxotetrahydropyrimidin-1(2H)-yl)-4-methoxybenzamido)ethyl)-1-oxa-4,9-diazaspiro[5.5]undecan-9-yl)methyl)phenyl)-7H-pyrrolo[2,3-d]pyrimidin-4-yl)-5-fluoro-2-methylphenyl)-2-fluoro-4-(2-hydroxypropan-2-yl)benzamide], the DC50 amounted to 149 nM and the “BTK deg Amax” value was found to be 12.7%.

As to `COc1ccc(C(=O)N2CCC3(CC2)CCN(C(C)(C)Cc2ccc(-c4cc5c(-c6cc(F)cc(NC(=O)c7ccc(C(C)(C)O)cc7F)c6C)ncnc5[nH]4)cc2)CC3)cc1N1CCC(=O)NC1=O` [Compound 20, N-(3-(6-(4-(2-(9-(3-(2,4-Dioxotetrahydropyrimidin-1(2H)-yl)-4-methoxybenzoyl)-3,9-diazaspiro[5.5]undecan-3-yl)-2-methylpropyl)phenyl)-7H-pyrrolo[2,3-d]pyrimidin-4-yl)-5-fluoro-2-methylphenyl)-2-fluoro-4-(2-hydroxypropan-2-yl)benzamide], the DC50 was found to be 2 nM and the “BTK deg Amax” value is listed as 1.1%.

Consider `COc1ccc(C(=O)NCCN2CCC3(CC2)CCN(Cc2ccc(-c4cc5c(-c6cc(F)cc(NC(=O)c7ccc(C(C)(C)O)cc7F)c6C)ncnc5[nH]4)cc2)CC3)cc1N1CCC(=O)NC1=O` [Compound 44, N-(3-(6-(4-((9-(2-(3-(2,4-dioxotetrahydropyrimidin-1(2H)-yl)-4-methoxybenzamido)ethyl)-3,9-diazaspiro[5.5]undecan-3-yl)methyl)phenyl)-7H-pyrrolo[2,3-d]pyrimidin-4-yl)-5-fluoro-2-methylphenyl)-2-fluoro-4-(2-hydroxypropan-2-yl)benzamide], for which half-maximal degradation (DC50) was put at 235 nM and the “BTK deg Amax” value stood at 48.4%.

As to `Cc1c(NC(=O)c2ccc(C(C)(C)O)cc2F)cc(F)cc1-c1ncnc2[nH]c(-c3ccc(CN4CCC5(CC4)CCN(C(=O)c4ccc(F)c(N6CCC(=O)NC6=O)c4)CC5)cc3)cc12` [Compound 14, N-(3-(6-(4-((9-(3-(2,4-Dioxotetrahydropyrimidin-1(2H)-yl)-4-fluorobenzoyl)-3,9-diazaspiro[5.5]undecan-3-yl)methyl)phenyl)-7H-pyrrolo[2.3-d]pyrimidin-4-yl)-5-fluoro-2-methylphenyl)-2-fluoro-4-(2-hydroxypropan-2-yl)benzamide], it took 3.8 nM to reach half-maximal degradation (DC50) and the “BTK deg Amax” value was determined as 11.7%.

For the molecule `COc1ccc(C(=O)N2CCC(CN3CCC(Oc4ccc(-c5cc6c(-c7cc(F)cc(NC(=O)c8ccc(C(C)(C)O)cc8F)c7C)ncnc6[nH]5)cc4)CC3)CC2)cc1N1CCC(=O)NC1=O` [Compound 19, N-(3-(6-(4-((1-((1-(3-(2,4-Dioxotetrahydropyrimidin-1(2H)-yl)-4-methoxybenzoyl)piperidin-4-yl)methyl)piperidin-4-yl)oxyl)phenyl)-7H-pyrrolo[2,3-d]pyrimidin-4-yl)-5-fluoro-2-methylphenyl)-2-fluoro-4-(2-hydroxypropan-2-yl)benzamide], the DC50 was 0.6 nM and the “BTK deg Amax” value was found to be 2.7%.

On to `Cc1c(NC(=O)c2ccc(C(C)(C)O)cc2F)cc(F)cc1-c1ncnc2[nH]c(-c3ccc(COC4CCN(CCC5CCN(C(=O)c6ccc(F)c(N7CCC(=O)NC7=O)c6)CC5)CC4)cc3)cc12` [Compound 6, N-(3-(6-(4-(((1-(2(1-(3-(2,4-dioxotetrahydropyrimidin-1(2H)-yl)-4-fluorobenzoyl)piperidin-4-yl)ethyl)piperidin-4-yl)oxyl)methyl)phenyl)-7H-pyrrolo[2,3-d]pyrimidin-4-yl)-5-fluoro-2-methylphenyl)-2-fluoro-4-(2-hydroxypropan-2-yl)benzamide], for which the DC50 was 0.7 nM and the “BTK deg Amax” value worked out at 4.1%.

As to `COc1ccc(C(=O)N2CCC(OC3CCN(CCc4ccc(-c5cc6c(-c7cc(F)cc(NC(=O)c8ccc(C(C)(C)O)cc8F)c7C)ncnc6[nH]5)cc4)CC3)CC2)cc1N1CCC(=O)NC1=O` [Compound 34, N-(3-(6-(4-(2-(4-((1-(3-(2,4-Dioxotetrahydropyrimidin-1(2H)-yl)-4-methoxybenzoyl)piperidin-4-yl)oxyl)piperidin-1-yl)ethyl)phenyl)-7H-pyrrolo[2,3-d]pyrimidin-4-yl)-5-fluoro-2-methylphenyl)-2-fluoro-4-(2-hydroxypropan-2-yl)benzamide], the DC50 was determined as 3.9 nM and the “BTK deg Amax” value is given as 1.7%.

Take `Cc1cc(F)c(C(=O)NCCCCCNCc2ccc(-c3cc4c(-c5cc(F)cc(NC(=O)c6ccc(C(C)(C)O)cc6F)c5C)ncnc4[nH]3)cc2)cc1N1CCC(=O)NC1=O` [Compound 29, 5-(2,4-Dioxotetrahydropyrimidin-1(2H)-yl)-2-fluoro-N—(S-((4-(4-(5-fluoro-3-(2-fluoro-4-(2-hydroxypropan-2-yl)benzamido)-2-methylphenyl)-7H-pyrrolo[2,3-d]pyrimidin-6-yl)benzyl)amino)pentyl)-4-methylbenzamide]: the DC50 was 19.9 nM and the “BTK deg Amax” value is 3.1%.

For `Cc1ccc(C(=O)N2CCC3(CCN(CCc4ccc(-c5cc6c(-c7cc(F)cc(NC(=O)c8ccc(C(C)(C)O)cc8F)c7C)ncnc6[nH]5)cc4)CC3)CC2)cc1N1CCC(=O)NC1=O` [Compound 5, N-(3-(6-(4-(2-(9-(3-(2,4-Dioxotetrahydropyrimidin-1(2H)-yl)-4-methylbenzoyl)-3,9-diazaspiro[5.5]undecan-3-yl)ethyl)phenyl)-7H-pyrrolo[2,3-d]pyrimidin-4-yl)-5-fluoro-2-methylphenyl)-2-fluoro-4-(2-hydroxypropan-2-yl)benzamide], the 50% degradation concentration (DC50) was 1 nM and the “BTK deg Amax” value was 3.1%.

Regarding `COc1ccc(C(=O)N2CCC3(CCN(CCc4ccc(-c5cc6c(-c7cc(F)cc(NC(=O)c8ccc(C(C)(C)O)cc8F)c7C)ncnc6[nH]5)cc4)CC3)CC2)cc1N1CCC(=O)NC1=O` [Compound 31, N-(3-(6-(4-(2-(9-(3-(2,4-Dioxotetrahydropyrimidin-1(2H)-yl)-4-methoxybenzoyl)-3,9-diazaspiro[5.5]undecan-3-yl)ethyl)phenyl)-7H-pyrrolo[2,3-d]pyrimidin-4-yl)-5-fluoro-2-methylphenyl)-2-fluoro-4-(2-hydroxypropan-2-yl)benzamide], the DC50 turned out to be 2.5 nM and the “BTK deg Amax” value was found to be 3.4%.

For orientation: DC50 means the concentration at which degradation of the target reaches its halfway point. A high value points to degradation only at high concentration.
